Measured values reported in patent publication US5458814A, “Substituted naphthopyrans” (Transitions Optical, Inc., priority 1993, dated 1995).

Experiment: Photochromic response on optical bench (lambda max, sensitivity, saturation optical density, bleach rate) of naphthopyrans imbibed into test square polymerizates
Assay type: physicochemical
Settings: for BLEACH RATE T1/2: time for absorbance to reach one half the highest absorbance after removal of activating light, 75° F., 23.9° C.; for LAMBDA MAX of the activated (colored) form in the visible spectrum: imbibed into diethylene glycol bis(allyl carbonate) composition; for Δ OD @ SATURATION: UV exposure continued for 20 minutes; for Δ OD @ SATURATION / Δ OD/Min SENSITIVITY: diethylene glycol bis(allyl carbonate), 75° F. (23.9° C.); for Δ OD/Min SENSITIVITY: first five (5) seconds of UV exposure, expressed on a per minute basis
Procedure: Testing was done with selected photochromic naphthopyrans incorporated into test square polymerizates by one of two different imbibition processes. The test square polymerizates were prepared from a diethylene glycol bis(allyl carbonate) composition and measured 1/8 inch (0.3 centimeters)×2 inches (5.1 centimeters)×2 inches (5.1 centimeters). In one of the imbibition processes, the photochromic naphthopyran was dissolved to form a 10 weight percent solution in a 1:9 mixture of ethyl cellulose:toluene. The solution was then spin coated onto the test squares and allowed to dry. […] After cooling, the ethyl cellulose/toluene resin film was removed from the test squares by washing with acetone.
Alternatively, the test squares were imbibed by the following procedure. Each naphthopyran was dissolved into toluene to form a four (4) weight percent solution of the compound. A piece of No. 4 Whatman filter paper was saturated with the naphthopyran toluene solution and allowed to air dry. The dried filter paper was placed on one side of the test square. A piece of untreated filter paper was placed on the other side of the polymeric test square and the resulting sandwich was placed between two flat aluminum metal plates. […] After cooling, the test squares were washed with acetone.
The photochromic squares were tested for photochromic response rates on an optical bench. […] The bench was fitted with a 150 watt Xenon arc lamp, a remote controlled shutter, a copper sulfate bath acting as a heat sink for the arc lamp, a Schott WG-320 nm cut-off filter which removes short wavelength radiation; neutral density filter(s) and a sample holder in which the square to be tested was inserted. A collimated beam of light from a tungsten lamp was passed through the square at a small angle normal to the square. After passing through the square, the light from the tungsten lamp was directed through a photopic filter attached to a detector. The photopic filter passes wavelengths such that the detector mimics the response of the human eye. The output signals from the detector(s) were processed by a radiometer.
Change in optical density (ΔOD) was determined by inserting an imbibed square in the bleached state into the sample holder, adjusting the transmittance scale to 100%, opening the shutter from the Xenon lamp to provide ultraviolet radiation to change the imbibed square from the bleached state to an activated (i.e., darkened) state, measuring the transmittance in the activated state, and calculating the change in optical density according to the formula ΔOD=log(100% Ta) where % Ta is the percent transmittance in the activated state and the logarithm is to the base 10.
The ΔOD/Min, which represents the sensitivity of the photochromic compound's response to UV light, was measured over the first five (5) seconds of UV exposure, then expressed on a per minute basis. The saturation optical density (OD) was taken under identical conditions as the ΔOD/Min, except UV exposure was continued for 20 minutes for the examples in Table 1. The lambda max reported in Table 1 is the wavelength in the visible spectrum at which the maximum absorption of the activated (colored) form of the photochromic compound in a diethylene glycol bis(allyl carbonate) composition occurs.

Compound	BLEACH RATE T1/2 (Table 2 comparison)	LAMBDA MAX of the activated (colored) form in the visible spectrum	BLEACH RATE T1/2 (Table 1)	Δ OD @ SATURATION	Δ OD/Min SENSITIVITY
COC(=O)c1c2c(c3ccccc3c1OC(C)=O)OC(c1ccc(OC)cc1)(C(C)(C)C)C=C2 (centres unmarked) [Example 4, 2-(4-methoxyphenyl)-2-t-butyl-5-methoxycarbonyl-6-acetoxy-[2H]naphtho[1,2-b]pyran]	7.22 min	–	–	–	–
COC(=O)c1c2c(c3ccccc3c1OCC#N)OC(c1ccccc1)(c1ccc(OC)cc1)C=C2 (centres unmarked) [Example 5, 2-(4-methoxyphenyl)-2-phenyl-5-methoxycarbonyl-6-(cyanomethoxy)-[2H]-naphtho [1,2-b]pyran]	–	494 nm	–	–	–
CCC(=O)Oc1c(C(=O)OC)c2c(c3ccccc13)OC(c1ccccc1)(c1ccccc1)C=C2 [Example 10, 2,2-diphenyl-5-methoxycarbonyl-6-(propionyloxy)-[2H]-naphtho[1,2-b]pyran]	–	470 nm	4.28 min	0.19	0.39 Δ OD/Min
COC(=O)c1c2c(c3ccccc3c1OC(C)=O)OC(c1ccccc1)(c1ccccc1)C=C2 [Example 7, 2,2-diphenyl-5-methoxycarbonyl-6-acetoxy-[2H]-naphtho[1,2-b]pyran]	3.67 min	–	–	–	–
COC(=O)c1c2c(c3ccccc3c1OC)OC1(C=C2)C2CC3CC(C2)CC1C3 (centres unmarked) [Example 13, 2,2'-spiroadamantylene-5-methoxycarbonyl-6-methoxy-[2H]-naphtho[1,2-b]pyran]	1.63 min	–	–	–	–
CCOC(=O)COc1c(C(=O)OC)c2c(c3ccccc13)OC(c1ccc(OC)cc1)(c1ccc3c(c1)CC(C)O3)C=C2 (centres unmarked) [Example 12, 2-(4-methoxyphenyl)-2-(2-methyl-2,3-dihydrobenzofur-5-yl)-5-methoxycarbonyl-6-ethoxycarbonylmethoxy-[2H]-naphtho[1,2-b]pyran]	–	517 nm	4.6 min	0.53	0.83 Δ OD/Min
COC(=O)c1c2c(c3ccccc3c1OC(C)=O)OC(c1cccc(C(F)(F)F)c1)(c1cccc(C(F)(F)F)c1)C=C2 [Example 11, 2,2-bis(3-trifluoromethylphenyl)-5-methoxycarbonyl-6-acetoxy-[2H]-naphtho[1,2-b]pyran]	–	455 nm	3.63 min	0.08	0.15 Δ OD/Min
COC(=O)c1c2c(c3ccccc3c1OC)OC(c1ccc(OC)cc1)(c1ccc(OC)cc1)C=C2 [Example 2, 2,2-bis(4-methoxyphenyl)-5-methoxycarbonyl-6-methoxy-[2H]-naphtho[1,2-b]pyran]	–	510 nm	5.08 min	0.48	0.81 Δ OD/Min
C1=CC2(Oc3c1ccc1ccccc31)C1CC3CC(C1)CC2C3 (centres unmarked) [Comparative Example 3, 2,2-spiroadamantylene-[2H]-naphtho[1,2-b]pyran, reference compound]	3.75 min	–	–	–	–
Cc1cc2ccccc2c2c1C=CC(c1ccccc1)(c1ccccc1)O2 [Comparative Example 2, 2,2-diphenyl-5-methyl-[2H]-naphtho[1,2-b]pyran, reference compound]	10.7 min	–	–	–	–
CCOC(=O)COc1c(C(=O)OC)c2c(c3ccccc13)OC(c1ccc(OC)cc1)(c1ccc(OC)cc1)C=C2 [Example 3, 2,2-bis(4-methoxyphenyl)-5-methoxycarbonyl-6-ethoxycarbonylmethoxy-[2H]-naphtho[1,2-b]pyran]	–	508 nm	3.52 min	0.44	0.79 Δ OD/Min
C1=CC(c2ccccc2)(c2ccccc2)Oc2c1ccc1ccccc21 [Comparative Example 1, 2,2-diphenyl-[2H]-naphtho[1,2-b]pyran, reference compound]	> 30 min	–	–	–	–
COC(=O)Oc1c(C(=O)OC)c2c(c3ccccc13)OC(c1ccc(C)cc1)(c1ccc(C)cc1)C=C2 [Example 6, 2,2-bis(4-methylphenyl)-5-methoxycarbonyl-6-(methoxycarbonyloxy)-[2H]-naphtho[1,2-b]pyran]	–	482 nm	1.67 min	0.17	0.32 Δ OD/Min
COC(=O)c1c2c(c3ccccc3c1O)OC(c1ccc(OC)cc1)(c1ccc(OC)cc1)C=C2 [Example 1, 2,2-bis(4-methoxyphenyl)-5-methoxycarbonyl-6-hydroxy-[2H]-naphtho[1,2-b]pyran]	–	497 nm	3.92 min	0.18	0.47 Δ OD/Min
COC(=O)c1c2c(c3ccccc3c1C)OC(c1ccc(OC)cc1)(c1ccc(OC)cc1)C=C2 [Example 8, 2,2-bis(4-methoxyphenyl)-5-methoxycarbonyl-6-methyl-[2H]-naphtho[1,2-b]pyran]	–	476 nm	3.62 min	0.42	0.63 Δ OD/Min
COc1ccc(C2(C(C)(C)C)C=Cc3ccc4ccccc4c3O2)cc1 (centres unmarked) [Comparative Example 4, 2-(4-methoxyphenyl)-2-t-butyl-[2H]naphtho[1,2-b]pyran, reference compound]	> 30 min	–	–	–	–
COC(=O)c1c2c(c3cc(OC)ccc3c1C)OC(c1ccc(OC)cc1)(c1ccc(OC)cc1)C=C2 [Example 9, 2,2-bis(4-methoxyphenyl)-5-methoxycarbonyl-6-methyl-9-methoxy-[2H]-naphtho[1,2-b]pyran]	–	522 nm	6.27 min	0.58	0.58 Δ OD/Min
